System: mixed culture of DC, PBMC and A375 cells
Test: Lymphocyte-tumor cell mixed reaction system, cytokine secretion by ELISA
Type: cell-based, human
Settings: A375 cells treated with 15 μM chiauranib for 48 h, BiAb004(hG1TM) 300 nM
Description: Freshly isolated PBMCs (from healthy donors) were adhered to the wall overnight. Mononuclear cells were collected. GM-CSF (2000 U/mL, from peprotech, Cat. No. 300-03) and IL-4 (2000 U/mL from peprotech, Cat. No. 200-04) were added. Induction was performed after 3 days of culture. For the iDC group, half of the medium was exchanged, and GM-CSF (2000 U/mL) and IL4 (2000 U/mL) were added. For the mDC group, half of the medium was exchanged, and GM-CSF (2000 U/mL), IFN-γ (50 ng/mL, from Sino Biological, Cat. No. 11725-HNAS-100) and LPS (100 ng/mL, from SIGMA, Cat. No. L6529) were added. The cells were cultured in an incubator for 2 days and frozen for later use.
A375 cells (purchased from ATCC, agency: Zhongyuan Ltd., Cat. No. CRL-1619) were digested conventionally, collected by centrifugation, and plated on 10 cm dishes at 2×10^6 cells/dish. Chiauranib (from Chipscreen Biosciences, Lot No. 210604) was added to one of the dishes to a final concentration of 15 μM, and a blank control group was set. The mixture was incubated in an incubator at 37° C. and 5% CO2 for 48 h (medium: DMEM+10% FBS). […] The cells were counted and plated as per DC:PBMC=1:10 in 96-well flat-bottom plates. […] The amounts of secretion of IFN-γ (purchased from Dakewe, Cat. No. 1110202) and IL-2 (purchased from Dakewe, Cat. No. 1110202) were measured by an ELISA kit.

## COc1ccc2c(Oc3ccc4c(C(=O)Nc5ccccc5N)cccc4c3)ccnc2c1 [chiauranib, N-(2-aminophenyl)-6-(7-methoxyquinoline-4-oxy)-1-naphthamide]
Supernatants day 3 and day 5, FIG. 17
  secretion of IFN-γ: effectively promote
Supernatants day 3 and day 5, FIG. 18
  secretion of IL-2: effectively promote

— US20250188164A1, “PHARMACEUTICAL COMPOSITION COMPRISING ANTI-CTLA4-ANTI-PD-1 BISPECIFIC ANTIBODY AND CHIAURANIB” (AKESO PHARMACEUTICALS, INC., priority 2022, published 2025)
